One may read the EC50 as the concentration needed to bring the measured effect to its halfway point.

Experiment [1] has as its system Bulk splenocytes from C57BL/6 mice. In words: Splenocyte proliferation assay (3H-thymidine incorporation). The conditions noted are these: Mus musculus, concentration giving 50% maximal response in proliferation of splenocyte cultures. It counts as cell-based. (Dividing cells build labelled thymidine or BrdU into new DNA.)
Experiment [2] shares this test system. The experiment in a line: Cytokine response of splenocyte cultures (IL-4 and IFNγ ELISA). The class given is cell-based. The conditions noted are these: 500 nM glycolipid, 48 hours. The procedure:
The cytokine response reported in Table 1 and FIG. 5C was determined by the following procedure: Bulk splenocytes from C57BL/6 mice were plated at 300,000 per well in 96-well flat-bottom tissue culture plates with ceramide-like glycolipids diluted to a concentration of 500 nM in 200 microliters complete medium. After 48 h at 37° C., 150 microliters of supernatant was removed for cytokine measurements. Supernatant levels of IL-4, and IFNγ were measured by standard enzyme-linked immunosorbent assay (ELISA), using capture and biotinylated detection antibody pairs (clones 11B11/BVD6-24G2-biotin, and R4-6A2/XMG1.2-biotin, respectively, from BD Pharmingen, San Diego, Calif.). […] Standards for IL-4 and IFNγ were from Peprotech (Rocky Hill, N.J.).
On the technique in general: In an ELISA, binding on a coated surface is turned into a signal by an enzyme label.

The test system of a further experiment is C57BL/6 mice. In words: Serum IL-4 and IFNγ after a single i.p. injection. The class given is in vivo. The conditions noted are these: 20 hours after single i.p. injection of 4.8 nanomoles. On the procedure: Serum levels of L-4 and IFNγ after a single injection of DB01-1, DB03-4, or DB03-5 are shown. C57BL/6 mice (11-13 weeks old) were given a single i.p. injection of 4.8 nanomoles of the compounds or phosphate buffered saline (PBS)/vehicle control. Serum cytokine levels were measured 2 and 20 hours later by capture ELISA. Bars show means of three mice, with standard deviation. Note that DB01-1 has nearly identical structure to KRN7000 (C24 fatty acid as compared to C26) and has activity that is indistinguishable from KRN7000 in multiple bioassays. We use DB01-1 as a “KRN7000 mimic” because it has been synthesized by our group and is readily available for our studies, and KRN7000 was unavailable due to license restrictions.
A most intriguing property of KRN7000 analogues is that in some cases they may elicit immune responses that are qualitatively different from those that occur following stimulation with the parent compound. […] This selective activation of IL-4 production by NK T cells was proposed to be the basis for the enhanced therapeutic effects of OCH in the EAE model of central nervous system autoimmune disease. We have observed a similar in vivo effect on the nature of the NK T cell response using several of our ceramide-like glycolipids. […] These responses are similar to those seen for DB01-1, an analogue that is structurally almost identical to KRN7000 (C24 fatty acid instead of C26, otherwise identical) and indistinguishable in terms of its activity in our hands. […] This selective IL-4 induction is virtually identical to that reported for the OCH analogue, and thus illustrates the potential for amino substituted analogues of KRN7000 to induce qualitatively different immunomodulatory effects in vivo. The results reported in FIG. 9 were obtained by measuring serum levels of IL-4 and IFNγ after administering a single injection of […], DB03-4, or DB03-5 to C57BL/6 mice. C57BL/6 mice (11-13 weeks old) were given a single i.p. injection of 4.8 nanomoles of the ceramide-like glycolipids or PBS/vehicle control. Serum cytokine levels were measured 2 and 20 hours later by capture ELISA. Bars show means of three mice, with standard deviation.
For experiments involving in vivo treatment of mice with the ceramide-like glycolipids, the ceramide-like glycolipids were administered by i.p. or i.v. injection in 0.2 ml PBS+0.025% Tween-20, or in vehicle alone. A typical dose is about 4-5 nmoles per animal per injection. Representative references for administering an α-galactosyl ceramide to mice by i.p., i.v. or p.o. routes are S. Sharif et al., Activation of natural killer T cells by alpha-galactosylceramide treatment prevents the onset and recurrence of autoimmune Type 1 diabetes, Nat. Med., Sep. 7, 2001, (9):1057-62 and K. Miyamoto et al., A synthetic glycolipid prevents autoimmune encephalomyelitis by inducing TH2 bias of natural killer T cells, Nature. Oct. 4, 2001, 413(6855):5314.

Setting [3] is: culture supernatant ELISA, ND = below the reliable level for detection.

`CCCCCCCCCCCCCCCCCCCCCCCC(=O)N[C@@H](COC1OC(CO)C(O)C(O)C1O)[C@H](O)[C@H](O)CCCCCCCCCCCCCC` (stereo partly drawn) [DB01-1] showed an EC50 in experiment [1] of 63.6 nM. Besides, in experiment [2], the “IL-4/IFNγ ratio divided by this ratio for DB01-1 (value in parentheses)” value is 1.0 and the “ratio IL-4/IFNγ” value is on record as 0.026. Also, in experiment [2] (setting [3]), the “Cytokine Response IFNγ” value was 7.29 ng/mL and the “Cytokine Response IL-4” value was 0.19 ng/mL. For the same molecule, in the experiment on C57BL/6 mice, the “serum IFNγ response” value is “strong IFNγ response”.

(Values after patent US8022043B2, “Ceramide derivatives as modulators of immunity and autoimmunity” (Albert Einstein College of Medicine of Yeshiva University, priority 2004, dated 2011).)
